Data taken from publication PMC4030970, “Structural Evidence for the Tetrameric Assembly of Chemokine CCL11 and the Glycosaminoglycan Arixtra™” (Biomolecules, 2013).

How the values were obtained:
CCL2 = target: T1, CCL2 (Homo sapiens, UniProt P13500); experiment: isothermal titration calorimetry; format: binding
T1 construct: construct and preparation not described in the main text; monomer-dimer, tetramer with saturating GAG

CCL11 (Eotaxin-1) = target: T2, CCL11 (Eotaxin-1) (Homo sapiens, UniProt P51671); experiment: isothermal titration calorimetry; format: binding
T2 construct: mature wild-type CCL11; monomer mass about 8360 Da from m/z; monomer-dimer-tetramer mixture
T2 sequence (P51671 24-97): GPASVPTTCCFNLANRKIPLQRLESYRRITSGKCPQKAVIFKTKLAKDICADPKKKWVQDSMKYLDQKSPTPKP

T1 sequence (P13500 24-99): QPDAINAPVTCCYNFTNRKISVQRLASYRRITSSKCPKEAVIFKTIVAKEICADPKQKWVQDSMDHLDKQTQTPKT

**Q.** With `CO[C@H]1O[C@H](COS(=O)(=O)O)[C@@H](O[C@@H]2O[C@@H](C(=O)O)[C@@H](O[C@H]3O[C@H](COS(=O)(=O)O)[C@@H](O[C@@H]4O[C@H](C(=O)O)[C@@H](O[C@H]5O[C@H](COS(=O)(=O)O)[C@@H](O)[C@H](O)[C@H]5NS(=O)(=O)O)[C@H](O)[C@H]4O)[C@H](OS(=O)(=O)O)[C@H]3NS(=O)(=O)O)[C@H](O)[C@H]2OS(=O)(=O)O)[C@H](O)[C@H]1NS(=O)(=O)O` [Arixtra] as the molecule, how does the Kd (CCL2) read?
**A.** 7.98 ± 0.77 µM

**Q.** And the Kd (CCL11 (Eotaxin-1))?
**A.** 2.71 ± 0.284 µM
